Counter-ions that a name gives are not always drawn.
Target: T1, Tyk2 (Homo sapiens, UniProt P29597)
T1 construct: purchased Invitrogen
Assay: Tyk2 enzyme inhibition test (LANCE method)
Type: biochemical
Details: test compound 1 μM; well without enzyme = 100% inhibition; read-out: Tyk2 enzyme inhibitory activity (%, 1 μM)
Description: Tyk2 Enzyme Inhibition Test
Tyk2 enzyme inhibitory activity of test compounds was measured by LANCE method (PerkinElmer). First, a test compound diluted with assay buffer (50 mM HEPES (pH=7.5), 10 mM MgCl2, 1 mM EGTA, 2 mM DTT, 0.01% Tween20, 0.01% BSA) was added to 384-well plate at 2 μL each. Then, a Tyk2 (Invitrogen) solution and a fluorescence-labeled peptide substrate (ULight-JAK1, PerkinElmer) solution diluted with assay buffer at 375 ng/mL and 300 nM, respectively were added at 2 μL each. Then, enzyme reaction was started by adding 2 μL each of ATP solution prepared with assay buffer at 30 μM. After the reaction at room temperature for 1 hr, Detection Buffer (PerkinElmer) prepared to be 20 mM EDTA, 4 nM europium-labeled anti-phosphotyrosine antibody (PerkinElmer) was added at 6 μL each. After standing at room temperature for 1 hr, fluorescence intensity (excitation wavelength 340 nm, fluorescence wavelength 665 nm, delay time 100 microsecond) was measured by a plate reader, Envision (PerkinElmer). The inhibitory activity of each compound was calculated as relative value where fluorescence intensity of a well without enzyme is considered as 100% inhibition.

T1 sequence (P29597 whole entry): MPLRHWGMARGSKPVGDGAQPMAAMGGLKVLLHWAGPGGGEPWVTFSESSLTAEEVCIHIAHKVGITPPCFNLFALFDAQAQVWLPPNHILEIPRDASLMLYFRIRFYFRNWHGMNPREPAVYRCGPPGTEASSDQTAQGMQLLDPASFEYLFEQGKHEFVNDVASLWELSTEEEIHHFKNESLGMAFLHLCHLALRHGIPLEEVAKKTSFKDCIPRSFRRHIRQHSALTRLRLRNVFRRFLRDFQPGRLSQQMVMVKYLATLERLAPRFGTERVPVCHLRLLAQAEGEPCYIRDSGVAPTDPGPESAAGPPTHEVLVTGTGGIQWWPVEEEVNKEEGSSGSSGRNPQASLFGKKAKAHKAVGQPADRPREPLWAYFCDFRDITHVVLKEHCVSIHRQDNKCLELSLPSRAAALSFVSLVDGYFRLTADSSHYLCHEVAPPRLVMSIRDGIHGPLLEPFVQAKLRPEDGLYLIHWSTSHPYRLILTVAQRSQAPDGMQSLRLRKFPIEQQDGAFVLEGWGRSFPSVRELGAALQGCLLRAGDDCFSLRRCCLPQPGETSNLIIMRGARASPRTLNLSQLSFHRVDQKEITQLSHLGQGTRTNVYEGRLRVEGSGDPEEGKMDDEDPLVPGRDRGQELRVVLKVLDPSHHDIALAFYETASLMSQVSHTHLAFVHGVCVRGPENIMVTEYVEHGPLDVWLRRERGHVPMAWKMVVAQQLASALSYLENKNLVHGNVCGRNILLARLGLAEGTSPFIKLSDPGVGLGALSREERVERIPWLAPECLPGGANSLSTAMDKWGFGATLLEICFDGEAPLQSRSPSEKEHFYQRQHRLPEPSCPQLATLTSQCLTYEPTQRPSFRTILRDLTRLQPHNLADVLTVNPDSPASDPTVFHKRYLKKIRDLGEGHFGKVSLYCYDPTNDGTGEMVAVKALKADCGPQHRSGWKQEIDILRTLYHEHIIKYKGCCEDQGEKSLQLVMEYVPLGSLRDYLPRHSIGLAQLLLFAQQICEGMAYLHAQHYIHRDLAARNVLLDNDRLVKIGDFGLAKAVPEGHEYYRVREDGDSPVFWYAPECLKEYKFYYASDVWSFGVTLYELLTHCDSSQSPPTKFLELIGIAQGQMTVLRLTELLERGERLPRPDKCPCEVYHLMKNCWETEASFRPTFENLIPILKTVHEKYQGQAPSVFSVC

Compound | inhibition at 1 µM [%]
N#C[C@@]1(C2CC2)CCN(c2ccnc(Nc3ccc(N4CCOCC4)cn3)c2)C1=O [Example 1, (3S)-3-cyclopropyl-1-(2-((5-(morpholin-4-yl)pyridin-2-yl)amino)pyridin-4-yl)-2-oxopyrrolidine-3-carbonitrile] | 99
CNC(=O)c1cc(Nc2cc(N3CC[C@@](C#N)(C4CC4)C3=O)ccn2)nn1C [Example 5, 3-((4-((3S)-3-cyano-3-cyclopropyl-2-oxopyrrolidin-1-yl)pyridin-2-yl)amino)-N,1-dimethyl-1H-pyrazole-5-carboxamide] | 101
CC(C)(CO)n1cc(Nc2cc(N3CCC(C#N)(C4CC4)C3=O)ccn2)cn1 (stereo not shown) [Example 129, 3-cyclopropyl-1-(2-((1-(1-hydroxy-2-methylpropan-2-yl)-1H-pyrazol-4-yl)amino)pyridin-4-yl)-2-oxopyrrolidine-3-carbonitrile] | 90
N#C[C@@]1(C2CC2)CCN(c2ccnc(Nc3cccnn3)c2)C1=O [Example 92, (3S)-3-cyclopropyl-2-oxo-1-(2-(pyridazin-3-ylamino)pyridin-4-yl)pyrrolidine-3-carbonitrile] | 96
C[C@@H]1C[C@@](C#N)(C2CC2)C(=O)N1c1ccnc(Nc2cc(C(N)=O)n(C)n2)c1 [Example 137, 3-((4-((3S,5R)-3-cyano-3-cyclopropyl-5-methyl-2-oxopyrrolidin-1-yl)pyridin-2-yl)amino)-1-methyl-1H-pyrazole-5-carboxamide] | 107
N#C[C@@]1(C2CC2)CCN(c2ccnc(Nc3cc(C(F)(F)F)ncn3)c2)C1=O [Example 43, (3S)-3-cyclopropyl-2-oxo-1-(2-((6-(trifluoromethyl)pyrimidin-4-yl)amino)pyridin-4-yl)pyrrolidine-3-carbonitrile] | 95
Cn1nc(Nc2cc(N3CC[C@@](C#N)(C4CC4)C3=O)ccn2)cc1N1CCOCC1 [Example 31, (3S)-3-cyclopropyl-1-(2-((1-methyl-5-(morpholin-4-yl)-1H-pyrazol-3-yl)amino)pyridin-4-yl)-2-oxopyrrolidine-3-carbonitrile] | 100
Cn1nc(Nc2cc(N3CC[C@@](C#N)(C4CC4)C3=O)ccn2)cc1C(N)=O [Example 138, 3-((4-((3S)-3-cyano-3-cyclopropyl-2-oxopyrrolidin-1-yl)pyridin-2-yl)amino)-1-methyl-1H-pyrazole-5-carboxamide] | 102
CC(=O)Nc1ccnc(Nc2cc(N3CC[C@@](C#N)(C4CC4)C3=O)ccn2)c1 [Example 29, N-(2-((4-((3S)-3-cyano-3-cyclopropyl-2-oxopyrrolidin-1-yl)pyridin-2-yl)amino)pyridin-4-yl)acetamide] | 100
CNC(=O)c1cc(Nc2cc(N3C(=O)[C@](C#N)(C4CC4)C[C@H]3C)ccn2)nn1C [Example 136, 3-((4-((3S,5R)-3-cyano-3-cyclopropyl-5-methyl-2-oxopyrrolidin-1-yl)pyridin-2-yl)amino)-N,1-dimethyl-1H-pyrazole-5-carboxamide] | 106
CCC1(C#N)CCN(c2ccnc(Nc3ccc(N4CCOCC4)cn3)c2)C1=O (stereo not shown) [Example 126, 3-ethyl-1-(2-((5-(morpholin-4-yl)pyridin-2-yl)amino)pyridin-4-yl)-2-oxopyrrolidine-3-carbonitrile hydrochloride] | 72
CC(C)(O)c1ccc(Nc2cc(N3CC[C@@](C#N)(C4CC4)C3=O)ccn2)nc1 [Example 3, (3S)-3-cyclopropyl-1-(2-((5-(2-hydroxypropan-2-yl)pyridin-2-yl)amino)pyridin-4-yl)-2-oxopyrrolidine-3-carbonitrile] | 99
N#CC1(C2CC2)CCN(c2ccnc(Nc3ccc(N4CCOCC4)cn3)c2)C1=O (stereo not shown) [Example 127, 3-cyclopropyl-1-(2-((5-(morpholin-4-yl)pyridin-2-yl)amino)pyridin-4-yl)-2-oxopyrrolidine-3-carbonitrile] | 83
